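96-well plates; 48 h exposure; 5 concentrations. Endpoints by linear interpolation between flanking doses. Not reached: highest tested concentration assigned. At the GI50, growth is halved. TGI marks complete inhibition of growth.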 Where a SMILES comes first, the peptide text is derived from it. Side-chain parts run from the residue outwards. The star is where a group is joined. Cbz = O=C(OCc1ccccc1)*; Boc = CC(C)(C)OC(=O)*
How the values were obtained:
Test in all cases: NCI tumour cell line growth inhibition, 48 h
[1] = system: CCRF-CEM leukemia
[2] = system: SK-OV-3 ovarian
[3] = system: PC-3 prostate
[4] = system: KM12 colon
[5] = system: SK-MEL-2 melanoma
[6] = system: BT-549 breast
[7] = system: U251 CNS
[8] = system: A498 renal
[9] = system: UACC-62 melanoma
[10] = system: SF-268 CNS

| Structure (SMILES) | TGI [1] [µM] | TGI [2] [µM] | TGI [3] [µM] | TGI [4] [µM] | TGI [5] [µM] | TGI [6] [µM] | TGI [7] [µM] | TGI [8] [µM] | TGI [9] [µM] | TGI [10] [µM] | GI50 [1] [µM] | GI50 [2] [µM] | GI50 [3] [µM] | GI50 [4] [µM] | GI50 [5] [µM] | GI50 [6] [µM] | GI50 [7] [µM] | GI50 [8] [µM] | GI50 [9] [µM] | GI50 [10] [µM] |
| --- | --- | --- | --- | --- | --- | --- | --- | --- | --- | --- | --- | --- | --- | --- | --- | --- | --- | --- | --- | --- |
| COC(=O)C1(Cc2ccc3c(c2)CCC3)Cc2cc3c(cc2C1=O)CCC3 (configuration not stated) | > 46.4 | > 46.4 | > 46.4 | > 46.4 | > 31.6 | 39.2 | > 46.4 | > 31.6 | > 46.4 | > 46.4 |  |  |  |  |  |  |  |  |  |  |
| CN1CCN(CCCCNc2cc3c4ccccc4c(NCCCCN4CCN(C)CC4)cc3c3ccccc23)CC1 | 3.07 | 29.4 | 21.2 | 3.06 | 16.5 | 14.9 | 4.21 | 28.5 | 6.05 | 8.04 |  |  |  |  |  |  |  |  |  |  |
| CC1(C)C(C(=O)OC(C#N)c2cccc(OCC(=O)OCc3ccccc3)c2)C1(C)C (configuration not stated) | 76.5 | > 100 | > 100 | > 100 | > 100 | > 100 | > 100 | > 100 | > 100 | > 100 |  |  |  |  |  |  |  |  |  |  |
| O=C(O)[C@H]1NC[C@@H]2ON=C(Br)[C@@H]21 | > 100 | > 100 | > 100 | > 100 | > 100 | > 100 | > 100 | > 100 | > 100 | > 100 |  |  |  |  |  |  |  |  |  |  |
| CCN(CC)CCNc1ccc2nnn3c4ccc(OC(C)=O)cc4c(=O)c1c23 | 3.2 | 21 | 17.3 | 15.4 | 30.7 | 27.2 | 15.5 | 21 | 25.3 | 18.1 |  |  |  |  |  |  |  |  |  |  |
| COc1cc(C(c2cc(OC)c(OC)c(OC)c2)N2C(=O)CCC2C(=O)O)cc(OC)c1OC (configuration not stated) | > 100 | > 100 | > 100 | > 100 | > 100 | > 100 | > 100 | > 100 | > 100 | > 100 |  |  |  |  |  |  |  |  |  |  |
| Cn1c2cc(Cl)ccc2c2ccc3c(c21)C(=O)C=CC3=O | 31.4 | > 100 | > 82 | > 100 | > 100 | > 63.8 | > 100 | > 100 | > 31.6 | > 82.6 |  |  |  |  |  |  |  |  |  |  |
| C/C=C/COc1cc(NC(=S)c2ccoc2C)ccc1OC | > 100 | > 100 | > 100 | > 100 | > 100 | > 100 | > 100 | > 100 | > 100 | > 100 |  |  |  |  |  |  |  |  |  |  |
| CC(C)CC(NC(=O)OCc1ccccc1)C(=O)NCCCCC(NC(=O)C(CCCCNC(=O)C(CC(C)C)NC(=O)OCc1ccccc1)NC(=O)C(CCCCNC(=O)C(CC(C)C)NC(=O)OCc1ccccc1)NC(=O)C(CCCCNC(=O)C(CC(C)C)NC(=O)OCc1ccccc1)NC(=O)OC(C)(C)C)C(=O)O (configuration not stated) (Boc-K([Leu-Cbz])K([Leu-Cbz])K([Leu-Cbz])K([Leu-Cbz])-OH; configuration not given here) | > 25 |  | > 25 |  | > 25 | > 25 | > 25 | > 25 | > 25 | > 25 |  |  |  |  |  |  |  |  |  |  |
| Cc1cc2nc(NS(=O)(=O)c3cc(C)c(Cl)cc3S)[nH]c2cc1C | 81.8 | > 100 | > 100 | > 100 | > 100 | > 100 | > 100 | > 100 | > 100 | > 100 |  |  |  |  |  |  |  |  |  |  |
| CC(Nc1cc(=O)n(C)c(=O)[nH]1)c1ccccc1 (configuration not stated) | > 100 |  | > 100 | > 100 | > 100 | > 100 | > 100 | > 100 | > 100 | > 100 |  |  |  |  |  |  |  |  |  |  |
| CCNC(=O)CCCCC(=O)c1c(C)[nH]c(/C=C2\N=C(c3ccc[nH]3)C=C2OC)c1C | > 100 | 5.76 | 5.8 | 4.79 | 7.44 | 10.3 | 4.5 | 21 | 19.3 | 6.52 | 2.59 | 2.59 | 1.63 | 2.17 | 3.14 | 2.85 | 1.99 | 8.19 | 6.11 | 2.41 |
| CCCCCCCCC[C@@H]1C[C@@H]2CCC3C(C(=O)OCCCCNC(=O)OCc4ccccc4)=C(C)NC(=N1)N32 (some centres not stated) | 8.93 | 8.74 | 7.32 | 13.7 | 4.84 | 12.6 | 10.3 | 18.9 | 13.7 | 6.66 |  |  |  |  |  |  |  |  |  |  |
| CCC(c1nc2ccccc2c(=O)n1NC(=O)C(C)(C)C)C1(O)CCCCC1 (configuration not stated) | > 100 | > 100 | > 100 | > 100 | > 100 | > 100 | > 100 | > 100 | > 100 | > 100 |  |  |  |  |  |  |  |  |  |  |

— PubChem BioAssay (NCI)
